Measurements taken from patent US4997829A, “Penem compounds, and use thereof” (Suntory Limited, priority 1985, dated 1991).

Experiments:
Assay in all cases: Minimum inhibitory concentration (MIC), agar plate dilution method
Format in all cases: cell-based
B. fragilis V-280-1 = settings: 10^6 CFU inoculated, 37° C., 18 hours; for MIC: Bacteroides fragilis, V2801
Experimental: (§1) With regard to the novel compounds obtained according to this invention and the compounds of Reference Examples, their minimum inhibitory concentrations (MIC) were determined by the agar plate dilution method in accordance with the MIC measuring standard method of The Chemotherapeutic Society of Japan, whereby 10^6 colony forming units were inoculated and the minimal concentration to inhibit the microbial growth after inclubation at 37° C. for 18 hours were determined, as shown as μg/ml in Table.

E. coli W3630/Rms213 = settings: for MIC: Escherichia coli, W3630/RMS213, 18 h, read-out: minimum inhibitory concentration (MIC)
Experimental: as §1

Al. fecalis IFO13111 = settings: 10^6 CFU inoculated, 37° C., 18 hours
Experimental: as §1

Pr. vulgaris GN7919 = settings: 10^6 CFU inoculated, 37° C., 18 hours; for MIC: Proteus vulgaris, GN7919
Experimental: as §1

Ser. marcescens IMA 1136 = settings: 10^6 CFU inoculated, 37° C., 18 hours; for MIC: Serratia marcescens, IMA1136
Experimental: as §1

E. coli W3630/Rms212 = settings: for MIC: Escherichia coli, W3630/RMS212, 18 h, read-out: minimum inhibitory concentration (MIC)
Experimental: as §1

M. luteus ATCC9341 = settings: 10^6 CFU inoculated, 37° C., 18 hours; for MIC: Micrococcus luteus, ATCC9341
Experimental: as §1

F. varium ATCC8501 = settings: 10^6 CFU inoculated, 37° C., 18 hours; for MIC: Fusobacterium varium, ATCC8501
Experimental: as §1

Ent. cloacae 963 = settings: 10^6 CFU inoculated, 37° C., 18 hours; for MIC: Enterobacter cloacae, 963
Experimental: as §1

S. aureus FAD209P JC-1 = settings: 10^6 CFU inoculated, 37° C., 18 hours; for MIC: Staphylococcus aureus, FAD209PJC1
Experimental: as §1

K. pneumoniae PC1602 = settings: 10^6 CFU inoculated, 37° C., 18 hours; for MIC: Klebsiella pneumoniae, PC1602
Experimental: as §1

B. fragilis GM7000 = settings: 10^6 CFU inoculated, 37° C., 18 hours; for MIC: Bacteroides fragilis, GM7000
Experimental: as §1

Pr. morganii IFO3848 = settings: 10^6 CFU inoculated, 37° C., 18 hours; for MIC: Morganella morganii, IFO3848
Experimental: as §1

E. coli NIHI JC-2 = settings: 10^6 CFU inoculated, 37° C., 18 hours; for MIC: Escherichia coli, NIHIJC2
Experimental: as §1

[1] = 10^6 CFU inoculated, 37° C., 18 hours

SMILES | MIC (B. fragilis V-280-1) [µg/mL] | MIC (E. coli W3630/Rms213) [µg/mL] | MIC (Al. fecalis IFO13111) [µg/mL] | MIC (Pr. vulgaris GN7919) [µg/mL] | MIC (Ser. marcescens IMA 1136) [µg/mL] | MIC (E. coli W3630/Rms212) [µg/mL] | MIC (M. luteus ATCC9341) [µg/mL] | MIC (F. varium ATCC8501) [µg/mL] | MIC (Ent. cloacae 963) [µg/mL] | MIC (S. aureus FAD209P JC-1) [µg/mL] | MIC (K. pneumoniae PC1602) [µg/mL] | MIC (B. fragilis GM7000) [µg/mL] | MIC (Pr. morganii IFO3848) [µg/mL] | MIC (E. coli NIHI JC-2) [µg/mL] | also measured
C[C@@H](O)[C@H]1C(=O)N2C(C(=O)O)=C([C@@H]3CCCO3)S[C@H]12 (relative stereo) [SUN 4118, potassium (1'R, 2"S, 5R, 6S and 1'S, 2"R, 5S, 6R)-6-(1'-hydroxyethyl)-2-(2"-tetrahydrofuranyl)penem-3-carboxylate] | 0.2 | 12.5 | 1.56 | 1.56 | 25 | 12.5 | 0.05 | 1.56 | 25 | 0.1 |  |  |  |  | 
C[C@@H](O)[C@H]1C(=O)N2C(C(=O)O)=C(c3ccco3)S[C@H]12 (relative stereo) [SUN 4194, Potassium (1'R, 5R, 6S and 1',S, 5S, 6R)-2-(2"-furanyl)-6-(1'-hydroxyethyl)penem-3-carboxylate, reference compound] | 6.25 | 25 | 6.25 | 3.13 | 25 | 25 | 0.2 | 6.25 | 25 | 0.39 | 3.13 | 0.39 | 12.5 | 25 | 
C[C@@H](O)[C@H]1C(=O)N2C(C(=O)O)=C(c3ccoc3)S[C@H]12 (relative stereo) [SUN 4196, Potassium (1'R, 5R, 6S and 1'S, 5S, 6R)-2-(3"-furanyl)-6(1'-hydroxyethyl)penem-3-carboxylate, reference compound] | 12.5 | 25 | 12.5 | 3.13 | 25 | 25 | 0.2 | 6.25 | 25 | 0.2 | 3.13 | 0.78 | 12.5 | 1.25 | 
C[C@@H](O)[C@H]1C(=O)N2C(C(=O)O)=C([C@@H]3CCC(=O)O3)S[C@H]12 [SUN 4262, Potassium (1'R, 2"S, 5R, 6S)-6-(1'-hydroxyethyl)-2-[2"-(5"-oxo)oxolanyl]penem-3-carboxylate] | 0.2 | 3.13 | 3.13 | 3.13 | 12.5 | 3.13 | 0.2 | 3.13 | 12.5 | 0.2 | 1.56 | 0.2 | 12.5 | 3.13 | 
C[C@@H](O)[C@@H]1C(=O)N2C(C(=O)[O-])=C([C@H]3CCC(=O)O3)S[C@@H]12.[K+] [SUN 4325, Potassium (1'R, 2"R, 5S, 6R)-6-(1'-hydroxyethyl)-2[2"-(5"-oxo)oxolanyl]penem-3-carboxylate] |  |  |  |  |  |  |  |  |  |  |  |  |  |  | minimum inhibitory concentration (MIC) (K. pneumoniae PC1602): 1.25 µg/mL; minimum inhibitory concentration (MIC) (B. fragilis V-280-1): > 12.5 µg/mL; minimum inhibitory concentration (MIC) (E. coli W3630/Rms213; [1]): 25 µg/mL; minimum inhibitory concentration (MIC) (Al. fecalis IFO13111): 12.5 µg/mL; minimum inhibitory concentration (MIC) (Pr. vulgaris GN7919): > 50 µg/mL; minimum inhibitory concentration (MIC) (Ser. marcescens IMA 1136): 50 µg/mL; minimum inhibitory concentration (MIC) (E. coli W3630/Rms212; [1]): > 50 µg/mL; minimum inhibitory concentration (MIC) (B. fragilis GM7000): 3.13 µg/mL; minimum inhibitory concentration (MIC) (M. luteus ATCC9341): 1.56 µg/mL; minimum inhibitory concentration (MIC) (Pr. morganii IFO3848): 50 µg/mL; minimum inhibitory concentration (MIC) (E. coli NIHI JC-2): 25 µg/mL; minimum inhibitory concentration (MIC) (F. varium ATCC8501): > 12.5 µg/mL; minimum inhibitory concentration (MIC) (Ent. cloacae 963): > 50 µg/mL; minimum inhibitory concentration (MIC) (S. aureus FAD209P JC-1): 3.13 µg/mL
C[C@@H](O)[C@H]1C(=O)N2C(C(=O)O)=C([C@H]3CCC(=O)O3)S[C@H]12 [SUN 4374, Potassium (1'R, 2"R, 5R, 6S)-6-(1'-hydroxyethyl)-2[2"-(5"-oxo)oxolanyl]penem-3-carboxylate] |  | 0.78 | 1.56 | 0.78 | 3.13 | 1.56 | 0.1 |  | 3.13 | 0.1 | 0.39 |  | 3.13 | 1.56 | 
C[C@@H](O)[C@H]1C(=O)N2C(C(=O)O)=C([C@@H]3CCCO3)S[C@H]12 [SUN 4434, Potassium (1'R, 2"S, 5R, 6S)-6-(1'-hydroxyethyl)-2-(2"-tetrahydofuranyl)penem-3-carboxylate] | 0.2 | 6.25 | 3.13 | 0.78 | 25 | 12.5 | < 0.025 | 1.56 | 12.5 | 0.05 |  |  |  |  | 
